Results: patent US7579016B2, “Methods for repelling arthropods using isolongifolenone analogs” (The United States of America as represented by the …, priority 2007, dated 2009)

Key:
mosquito = settings: 25 nmol compound/cm^2, applied to human skin or cloth; cited from earlier work
Anopheles stephensi = test: in vitro K&D module mosquito biting-deterrent bioassay; type: in vivo; settings: 25 nmol/cm^2 cloth; 3-minute exposure; 200 females; FIG. 2
Text: (§1) Mosquito Bioassay: Yellowfever mosquito, Aedes aegypti (red eye Liverpool strain) and malarial vector mosquito, Anopheles stephensi used in the study were from colonies maintained at the Walter Reed Army Institute of Research, Department of Entomology, Silver Spring, Md. The mosquitoes were reared using the procedure of Gerberg et al. (Gerberg, E. J., et al., Manual for mosquito rearing and experimental techniques, 1994, AMCA Inc., Lake Charles, La.). Larvae were fed ground tropical fish flakes (Tetramin Tropical Fish Flakes, Tetra Sales, Blacksburg, Va., wwv.tetra-fish.com). Colonies were maintained in a photoperiod of 12:12 h (L:D with lights on at 0600 h) at 27° C. and 80% RH. Adult mosquitoes were supplied with cotton pads moistened with 10% aqueous sucrose solution.
(§2) The comparative mosquito biting-deterrent activity of isolongifolenone and Deet was evaluated using the mosquitoes A. degypti and An. stephensi. Isolongifolenone was synthesized as described earlier. The well known and widely used synthetic repellent chemical Deet (McCabe, E. T., et al., J. Org. Chem., 19: 493-498 (1954)) was purchased from Morflex, Inc., Greensboro, N.C. Deet is often considered to be the best mosquito repellent ever developed (Elston, D. M., J. Am. Acad. Dermatol., 36: 644-645 (1998)) and is used as a gold standard to which new candidate repellents are compared. A comparative bioassay of the two compounds was conducted by using the in vitro K&D module bioassay system (Klun et al., 2005). The K&D in vitro assay system consists of three components: (1) A Plexiglas™ 29.7 cm×7.1 cm K&D module composed of six adjacent cells each designed to hold mosquitoes and each having a rectangular 3×4 cm floor hole that opened and closed by a sliding door. (2) A Plexiglas™ six-well 29.7 cm×7.1 cm water water-bath warmed (38° C.) reservoir with six 3×4 cm wells designed to match the sliding-door openings of the K&D module base and to contain 6 mL warmed human red blood cells. The wells were covered with a collagen membrane (the blood cell-membrane unit simulated a human host for mosquito feeding). (3) A 29.7×7.1 cm×0.4 cm Teflon® separator having six rectangular openings like the K&D module. In the study, test compounds in 95% ethanol solution were applied to 3×4 cm cloth areas marked with ink pen on a 29.7-cm×7.1 cm strip of organdy cloth. We routinely applied ethanol solutions (115 μL) 0.5 cm outside of the 3×4 marked cloth areas to ensure that mosquitoes were never exposed to any area of untreated cloth. […] The Teflon® separator was placed over the treated cloth. The function of the separator was to prevent direct contact of the K&D module with chemically treated cloth. A bioassay replicate consisted of three treatments: isolongifolenone, Deet, and 95% ethanol treated cloth as control. We used two replicates with treatments randomly positioned over the six-cells of a reservoir.
(§3) The mosquito bioassays were conducted With the in vitro K&D module systems positioned in a Purair ductless chemical fume hood (Air Science USA, LLC, Fort Myers, Fla.) from 1300-1600 h over days at 24°-26° C. and 24-51%, RH in ambient laboratory light. Mated nulliparous A. aegypti and A. stephensi (5-15 d old) were tested, and they had no water 24 h before testing. Mosquitoes were loaded into each of six adjacent K&D module cells and promptly after loading they were exposed to 2 replicates of the three treatments on the organdy cloth. Routinely, a six-celled K&D module containing five mosquitoes/cell was positioned on the Teflon® separator over air-dried cloth treatments covering the blood-membrane wells, and trap doors of the K&D modules were opened to expose-the treatments to the sets of mosquitoes. After a 3-minute exposure, the number of mosquitoes biting through cloth treatments in each cell was recorded and mosquitoes were prodded back into the cells. […]

Aedes aegypti = test: as above; type: in vivo; settings: for proportion of mosquitoes not biting (biting deterrence): 3-minute exposure, 200 females, FIG. 2; for proportion of mosquitoes deterred, dose-response assay: FIG. 3
Text: as §1, §2, §3

Ixodes scapularis nymphs = test: fingertip tick repellency bioassay (treated cloth strip around finger); type: in vivo; settings: for I. scapularis nymphs repelled: FIG. 4
Text: (§4) Tick Bioassay: Blacklegged tick (Ixodes scapularis) nymphs were reared from larvae obtained from the laboratory colony at Oklahoma State University, Stillwater, Okla., and fed on rats (Beltsville Area Animal Care and Use Committee Protocol #05-0122) at the U.S. Department of Agriculture (USDA), Agricultural Research Service (ARS), Beltsville Agricultural Research Center, Beltsville, Md. Lone star tick (Amblyomma americanum) nymphs were obtained from a colony at the USDA, ARS, Knipling-Bushland U.S. Livestock Insects Research Laboratory, Kerrville, Tex. Both species of ticks were maintained at 24° C.; ˜97% RH and 16:8 h LD until testing.
(§5) The fingertip bioassay used by Schreck et al. (Schreck, C. E., et al., J. Am. Mosq. Control Assoc., 11: 136-140 (1995)) was modified (Carroll, J. F., et al., Exp. Appl. Acarol., 41: 215-224 (2007); Carroll, J. F., et al., Med. Vet. Entomol., 19:101-106 (2005)) by applying treatments to the outer layer of a strip of cloth (organdy) later doubly wrapped around the middle phalanx of an index finger. A 7×7 […] strip of organdy cloth (G Street Fabrics, Rockville, Md.) was cut in the shape of a hockey stick (9 cm long section, 4.5 cm short section, 4-4.5 cm wide) so that when the cloth was wrapped twice around the middle phalanx of the index finger it completely covered the area between the deepest creases of the distal and middle joints of the finger of a volunteer subject. The cloth extended 5-6 mm proximally beyond the deepest crease of the middles joint and overlapped 1-3 mm. With the strip of cloth in place, the boundaries of the area to receive the repellent treatment area (between the deepest creases of the distal and middle joints) were marked on the cloth with a lead pencil. This cloth was used as a template for tracing the boundaries on other cloths.
(§6) Stoichiometrically equivalent stock 95% ethanol solutions of the compounds were prepared: 50 nmol Deet/μL and 50 nmol isolongifolenone or isolongifolenone analog/μL for use in all bioassays. The volumes of the respective solutions used to generate 155 nmole repellent doses/cm^2 cloth were based on the dimensions of the middle phalanx of the left index finger of a volunteer subject. The volume of the treated solutions required to give the desired nmoles/cm^2 cloth dosages was calculated from the average of the circumferences of the two finger joints multiplied by the distance between the deepest crease of each joint.
(§7) A repellent solution (52 μL) or ethanol (control) of the same volume was applied to the designated treatment area on the cloth and allowed to dry. As with Schreck et al. (1995), it was necessary to screen I. scapularis nymphs for active individuals. While the treated cloth dried, I. scapularis nymphs were transferred by forceps from a holding vial to a finger. Ten ticks that crawled ≧5 mm were sequestered in a Petri dish that had been glued inside a larger Petri dish with water added to the space between their sides to form a moat. After the cloth dried (10-12 min), it was wrapped twice around the index finger. To keep the cloth wrapped around the finger, three small dabs of beeswax were smeared on the upper surface of the inner layer of cloth at the edge of the overlap and pressure applied for 10 s. Using forceps, the 10 selected ticks were placed on the tip of the horizontally held finger between the nail and the edge of the cloth. When the tenth tick was placed on the finger, the finger was slowly tipped vertically with the tip downward. The locations of the ticks were recorded at 1, 3, 5, 10 and 15 min after their release on the finger. […] For both species, the finger was held over moated Petri dishes while ≧1 tick was on it. During bioassays temperatures ranged from 23°-26° C. and 10-56% RH. The repellent data were compared by paired samples t-test (SPSS 10.0 for Windows for significance at α=0.05 level, George, D., and P. Mallery, SPSS for Windows step by step: A simple guide and reference, 4th ed., 2002, Allyn & Bacon, Boston, Mass.). […]

[1] = tested on: Amblyomma americanum nymphs; test: as above; type: in vivo; settings: A. americanum nymphs; 155 nmol/cm^2 cloth; 10 min after release on finger
Text: as §4, §5, §6, §7

SMILES | suppression of mosquito biting compared to controls (mosquito) | proportion of mosquitoes not biting (biting deterrence) (Anopheles stephensi) | proportion of mosquitoes not biting (biting deterrence) (Aedes aegypti; 25 nmol/cm^2 cloth) | proportion of mosquitoes not biting (analog comparison) (Aedes aegypti; 25 nmol/cm^2 cloth, 100 mosquitoes per compound, FIG. 6) | I. scapularis nymphs repelled (Ixodes scapularis nymphs; 19.5 nmole/cm^2 cloth) [%] | I. scapularis nymphs repelled (Ixodes scapularis nymphs; 39 nmole/cm^2 cloth) [%] | I. scapularis nymphs repelled (Ixodes scapularis nymphs; 78 nmole/cm^2 cloth) [%] | proportion of mosquitoes deterred, dose-response assay (Aedes aegypti; 25 nmole compound/cm^2 cloth) | proportion of mosquitoes deterred, dose-response assay (Aedes aegypti; 36 nmole compound/cm^2 cloth) | Proportion Repelled [1] | Proportion Repelled (Ixodes scapularis nymphs; I. scapularis nymphs, 155 nmol/cm^2 cloth, 10 min after release on finger)
CCN(CC)C(=O)c1cccc(C)c1 [Deet, N,N-Diethyltoluamide, reference compound] | ca. 80% | significantly greater | significantly greater | significantly greater | 15 | 55 | 100 | – | – | – | –
CC1(C)C2=CC(=O)CC(C)(C)[C@]23CC[C@H]1C3 [Isolongifolenone, (−)-isolongifolenone] | – | more effectively than Deet | more effectively than Deet | – | 35 | 65 | 100 | significantly greater than the proportions deterred by Deet | significantly greater than the proportions deterred by Deet | 0.725 | 1.0
